In paper PMC2807854, “Monoketone analogs of curcumin, a new class of Fanconi anemia pathway inhibitors” (Molecular Cancer, 2009):

Tests used:
[1] = tested on: xMRE11-P (MRE11 phosphorylation); experiment: MRE11 phosphorylation in activated Xenopus extracts (immunoblot); format: biochemical, Xenopus laevis
Method: A series of monoketone analogs of curcumin [18] was evaluated in Xenopus egg extracts where DNA substrate-induced xFANCD2-Ub is used as a readout of FA pathway performance. Phosphorylation of MRE11 (MRE11-P), a member of the MRN DNA damage repair pathway was monitored to assess the cross-specificity of the compounds. For each compound, IC50 values were determined from serial dilution experiments and densitometry analysis of immunoblots.
IC50 values were determined using immunoblots of plasmid-activated extracts treated with a range of concentrations for each compound (0, 10, 25, 60, 150, 400, 1000, 3000 μM). A representative experiment is shown (out of 3 repeats). B) Structure of curcumin and monoketone analogs. […] Activated extracts were treated with 1 mM each compound and phosphorylation of RPA32 and H2AX monitored by immunoblot.
Preparation of Xenopus laevis low-speed extracts and the FA pathway assay were described previously.
Fitted curves were determined from experimental data using IgorPro. The concentration of compound that induces 50% inhibition of the measured endpoint (i.e. FANCD2 ubiquitylation, Mre11 phosphorylation and cell survival) was then plotted on the fitted curve.

proteasome = experiment: Proteasome assay in Xenopus extracts, both activities taken together; format: biochemical, Xenopus laevis; details: caspase-like and chymotrypsin-like activities
From the text: The proteasome is required for the monoubiquitylation of xFANCD2 in cells. As curcumin has proteasome inhibiton activities, we tested whether EF24 inhibits xFANCD2-Ub by this mechanism. Two proteasome activities (caspase-like and chymotrypsin-like) along with xFANCD2-Ub status were monitored in activated Xenopus extracts treated with various compounds (Fig. 2A).
Proteasome activities and xFANCD2-Ub were monitored using fluorogenic probes and immunoblotting, respectively. IC50 values were determined for each compound using a range of concentrations and represented in histogram graphs. For MG132, numbers above caspase-like and chymotrypsin-like histograms indicate the actual IC50 values. A representative experiment is shown (out of 3 repeats).
Fluorogenic peptides (Proteasome Substrate Pack #PW9905) specific for the chymotrypsin-like and caspase-like activities of the proteasome were incubated in Xenopus extracts treated with serial dilutions of various compounds. Fluorescence emitted by proteasome cleavage of the peptides was monitored using a fluorometer (FluoStar Galaxy, BMG Labtech) with 380 nm and 460 nm excitation and emission filters, respectively. Experiments were repeated at least twice.

[2] = tested on: IKK (IκB-α stabilization); experiment: IκB-α accumulation in Xenopus extracts as readout of IKK inhibition (immunoblot); format: biochemical, Xenopus laevis; details: Xenopus extracts prepared without cycloheximide, Fig. 3A/3B
Method: We tested whether EF24 inhibits IKK activity in Xenopus extracts by monitoring the accumulation of the IKK target, IκB-α (Fig. 3A). Because IκB-α phosphorylation by IKK leads to its degradation by the ubiquitin-proteasome pathway, inhibition of IKK results in the accumulation of IκB-α. For this experiment, we used extracts prepared without cycloheximide to allow for de novo translation of IκB-α.
Extracts treated as indicated were analyzed by immunoblot using xFANCD2, IκB-α and tubulin-α antibodies. IκB-α protein level was used as readout for monitoring IKK inhibition. […] Experiment was performed as in (A). The structure of BMS-345541 is shown. The star denotes a non-specific band used as loading control.

[3] = tested on: xCHK1-P (ATR target CHK1); experiment: CHK1 phosphorylation in DNA-stimulated Xenopus extracts (immunoblot); format: biochemical, Xenopus laevis; details: Fig. S4
Method: Since both proteins are the target of the DNA damage signaling and checkpoint kinases ATM and ATR [28, 44], we tested whether EF24 treatment affected the phosphorylation status of a classic ATR target, CHK1 [45].
EF24 inhibits phosphorylation of CHK1 (CHK1-P) in DNA-stimulated Xenopus extracts. The EF24 blot shown in Fig. 6B was reprobed with a phospho-CHK1 specific antibody. Inhibition of plasmid-induced xCHK1-P was apparent at 400 µM EF24 treatment. (*) A non-specific band was used as loading control. See legend of Fig. 7B for […]

FA core complex = FA core complex integrity (co-immunoprecipitation) and recruitment to DNA in Xenopus extracts; format: biochemical, Xenopus laevis
Method: In human cells, hFANCD2-Ub is reduced when FA core complex proteins are defective or absent.
Xenopus extracts were treated with 1mM EF24 and core complex integrity was monitored by co-immunoprecipitation of FANCM and FANCA with FANCG (lanes 3-4).
Normal IgG was used as negative control for IP (lanes 1-2). Input corresponds to 5% of IP volume. LE, long exposure; SE short exposure. Co-immunoprecipitation of 3 members of the core complex (FANCA, FANCM and FANCG) was similar in the presence or in […]
Materials and Methods. 40 µl of egg extract (2 mg total protein content) were incubated with plasmid DNA (150 ng/µl) and 1 mM EF24 (or DMSO) for 20 min at room temperature before addition of 1 ml lysis buffer (10 mM Tris pH 7.4, 150 mM NaCl, 1% NP40, 0.5% deoxycholate, 1mM EDTA, 0.5 mg/ml Pefabloc, 1mM DTT). 10µl of rabbit polyclonal antibody against xFANCG was added and samples were mixed by rotating overnight at 4°C. 100 µl of pre-swelled and washed (50% slurry in PBS) proteinA-sepharose beads (GE Healthcare) were added and rotated for 30 minutes at 4°C. Beads were pelleted by centrifugation, washed 3 times with lysis buffer and proteins were eluted by boiling in protein loading buffer. […]

HeLa cells = experiment: Cell cycle profile of HeLa cells by FACS (PI DNA content); format: cell-based, human; details: 8 hrs
Method: As the activity of the FA pathway is cell cycle dependent, we monitored the effect of HU and EF24 on the cell cycle by FACS analysis.
Hela cells were treated for 8 hrs with 2mM HU and/or 2 mM EF24 as indicated, stained with PI and subjected to DNA content analysis by FA C S. (A) DNA content profiles are shown with M1: 2N DNA (G1 phase), M2: 2N<DNA<4N (S phase), M3: 4N DNA (G2/M phases). (B) Percentage of cells in each phase for each treatment. A representative experiment (from 2 repeats) is shown.
As the activity of the FA pathway is cell-cycle dependent, we tested wheth e r the effect of EF24 on HU-induced FANCD2-L correlated with differences in cell cycle p r ofile.
G2/M cells, consistent with the fact that HU efficiently blocks replication. On the other hand, cells treated with EF24 accumulated […]
Materials and Methods. For FACS analysis, cells were trypsinized, fixed in 70% EtOH and stained for 16 hrs at 4 °C in p r opidium iodide (PI) solution (40 µg/ml PI, 0.2 mg/ml RNAse A, 0.1% triton in PBS). For each point, 10000 gated cells were counted using a FACSCalibur flow cytometer (BD Biosciences). […]

Compound: O=C1/C(=C/c2ccccc2F)CNC/C1=C\c1ccccc1F [EF24, 3,5-bis(2-flurobenzylidene)piperidin-4-one]
effect on xMRE11 phosphorylation [1]: inhibits the phosphorylation of xMRE11
integrity of the FA core complex (FA core complex; 1 mM, co-immunoprecipitation with xFANCG): unchanged
recruitment of the core complex to DNA (FA core complex; Xenopus extracts, data not shown): did not detectably interfere
cell cycle profile, compound alone (HeLa cells; 2 mM EF24 as printed): accumulated
cell cycle profile, compound in combination with HU compared to untreated cells (HeLa cells; 2mM HU): no significant change in the cell cycle profile
